SMILES strings stand for the structures.

In this experiment the target is T1, Tyrosine-protein kinase receptor UFO (Homo sapiens, UniProt P30530).
T1 sequence (P30530 whole entry): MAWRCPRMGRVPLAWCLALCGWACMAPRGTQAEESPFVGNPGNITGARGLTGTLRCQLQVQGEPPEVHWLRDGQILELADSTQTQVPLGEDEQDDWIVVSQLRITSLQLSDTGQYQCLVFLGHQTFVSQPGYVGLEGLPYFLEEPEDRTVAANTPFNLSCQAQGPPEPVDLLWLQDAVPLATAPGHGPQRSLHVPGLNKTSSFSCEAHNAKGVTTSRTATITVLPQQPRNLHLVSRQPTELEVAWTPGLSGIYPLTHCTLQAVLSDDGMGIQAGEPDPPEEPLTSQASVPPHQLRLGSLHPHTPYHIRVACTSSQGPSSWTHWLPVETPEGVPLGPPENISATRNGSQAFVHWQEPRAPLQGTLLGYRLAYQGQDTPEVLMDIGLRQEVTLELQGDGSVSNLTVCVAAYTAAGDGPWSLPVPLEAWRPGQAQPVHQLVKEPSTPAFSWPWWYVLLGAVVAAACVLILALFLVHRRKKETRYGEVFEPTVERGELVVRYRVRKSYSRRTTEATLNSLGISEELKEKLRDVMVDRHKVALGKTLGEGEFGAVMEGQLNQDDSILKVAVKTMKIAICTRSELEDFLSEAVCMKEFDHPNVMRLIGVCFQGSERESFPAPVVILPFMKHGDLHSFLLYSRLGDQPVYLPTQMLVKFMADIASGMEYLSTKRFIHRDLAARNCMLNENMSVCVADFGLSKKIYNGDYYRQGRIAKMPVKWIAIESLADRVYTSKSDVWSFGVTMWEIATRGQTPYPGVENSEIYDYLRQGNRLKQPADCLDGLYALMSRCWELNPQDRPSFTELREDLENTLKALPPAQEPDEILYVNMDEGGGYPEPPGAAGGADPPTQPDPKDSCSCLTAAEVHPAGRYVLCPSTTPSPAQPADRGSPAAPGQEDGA
Put plainly: Inhibition of human recombinant AXL incubated for 1 to 1.5 hrs by FRET based Z'-Lyte kinase assay.
Regarding `Cc1c(C(=O)Nc2ccc(Oc3ncnc4[nH]cc(-c5ccccc5)c34)c(F)c2)c(=O)c2cc(F)ccc2n1C`, the IC50 was > 10 µM.
Take `Cc1c(C(=O)Nc2ccc(Oc3ncnc4[nH]cc(-c5ccccc5)c34)c(F)c2)c(=O)c2cc3ccccc3cc2n1C`: the IC50 is > 10 µM.
On to `Cc1c(C(=O)Nc2ccc(Oc3ncnc4[nH]cc(-c5ccccc5)c34)c(F)c2)c(=O)c2cc(-c3ccccc3)ccc2n1C`, for which the IC50 is > 10 µM.

The values are drawn from BindingDB's records for doi:10.1021/acs.jmedchem.6b00608 (Chinese Academy of Sciences, 2016).
